Assay results: patent US20250313530A1, “SMALL MOLECULE INHIBITORS OF INTERLEUKIN-4 AND USES THEREOF” (Trustees of Boston University, priority 2024, published 2025)
Several values for one entry are separate records, joined by “and”; a condition that tells them apart may be missing. Equal entries are not always repeated. Where two headings read alike, the source gives them in different places.

Target: T1, IL-4 (Homo sapiens, UniProt P05112)
T1 construct: purchased Acros Biosystems IL4-H4218; host or cells: HEK-293
T1 sequence (P05112 25-153): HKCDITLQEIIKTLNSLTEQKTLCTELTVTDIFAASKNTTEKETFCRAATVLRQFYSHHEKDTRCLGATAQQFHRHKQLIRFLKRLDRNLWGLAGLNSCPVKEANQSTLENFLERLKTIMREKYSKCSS
Test: HEK-Blue IL-4/IL-13 reporter assay, IL-4 inhibition
Type: cell-based
Conditions: for inhibition at 10 µM: HEK-Blue; for inhibition at 10 µM / % Inhibition: IL-4, HEK Blue IL-4/IL-13 reporter assay, 10 μM; for EC50: HEK Blue IL-4/IL-13 reporter assay, read-out: EC50
Experimental: HEK-Blue IL-4/IL-13 Inhibition assay. HEK-Blue IL-4/IL-13 reporter cell lines were purchased from Invivogen and cultured in DMEM with 10% Heat Inactivated Fetal Bovine Serum (FBS), 100 U/ml-100 μg/ml Pen-Strep, 10 μg/ml blasticidin, 100 μg/ml Normocin and 100 μg/ml Zeocin. Cells were tested for secreted embryonic alkaline phosphatase (SEAP) production induced by IL-4 alone prior to small molecule screening.
22.5 μl of small molecule in DMEM 4% DMSO was added to 22.5 μl of 1 ng/ml IL-4 in DMEM in a non-binding 96-well reaction plate for 30 minutes at room temperature. The reaction plate was further incubated for 30-60 min at 37° C. HEK-Blue IL-4/IL-13 reporter cell line was used between passages 11-17. […] Measurements were done in triplicate. The plate was incubated for ˜22-24 hours at 37° C./5% CO2. Quanti-Blue dye was prepared as per the manufacturer's recommendation and 160 μl was dispensed in each well of a 96-well plate (avoid edges to avoid evaporation), 40 μl of cell supernatant was added to the same plate and incubated for 3 hours at 37° C./5% CO2. Optical density was then measured at 650 nm using Molecular Devices SpectraMax M5 Microplate reader. Data was analyzed and plotted using GraphPad Prism 9.2.0.

| inhibition at 10 µM (read-out: % Inhibition) [%] | SMILES | EC50 (dose response, IL-4 inhibition) | inhibition at 10 µM [%] | further results |
| --- | --- | --- | --- | --- |
| 28.5 ± 12.1 | N#Cc1c(-c2ccc(O)c(O)c2)cc(C2CCC2)nc1N [3A/56, 2-amino-6-cyclobutyl-4-(3,4-dihydroxyphenyl) nicotinonitrile] | – | – | – |
| – | COc1ccc(C2=NC(=N)C(C#N)C(c3ccc(O)c(O)c3)=C2)cc1 (centres unmarked) [Compound 6, 4-(3,4-dihydroxyphenyl)-2-imino-6-(4-methoxyphenyl)-2,3-dihydropyridine-3-carbonitrile] | 3.02 ± 0.61 µM | – | % Inhibition: 51.7 ± 5.05% |
| – | N#Cc1c(-c2ccc(Cl)c(Cl)c2)cc(-c2ccc(F)cc2)[nH]c1=O [Compound 34, 4-(3,4-dichlorophenyl)-6-(4-fluorophenyl)-2-oxo-1,2-dihydropyridine-3-carbonitrile] | – | 44.2 ± 11.1 | – |
| – | COc1cc(-c2cc(-c3ccc(F)cc3)[nH]c(=O)c2C#N)ccc1O [Compound 42, 6(4-fluorophenyl)-4-(4-hydroxy-3-methoxyphenyl)-2-oxo-1,2-dihydropyridine-3-carbonitrile] | – | 67.6 ± 4.88 | – |
| – | N#Cc1c(-c2ccc(O)c(O)c2)cc(-c2ccc(O)cc2)[nH]c1=N [Compound 4, 4-(3,4-dihydroxyphenyl)-6-(4-hydroxyphenyl)-2-imino-1,2-dihydropyridine-3-carbonitrile] | 1.14 ± 0.38 µM | > 80 | % Inhibition: 81.2 ± 18.9% |
| 6.13 ± 9.13 | N#Cc1c(-c2ccccc2)cc(-c2ccc(F)cc2)[nH]c1=N [Compound 43, 6-(4-fluorophenyl)-2-imino-4-phenyl-1,2-dihydropyridine-3-carbonitrile] | – | – | – |
| – | COc1ccc(-c2cc(-c3ccc(F)cc3)[nH]c(=N)c2C#N)cc1O [Compound 49, 6-(4-fluorophenyl)-4-(3-hydroxy-4-methoxyphenyl)-2-imino-1,2-dihydropyridine-3-carbonitrile] | 4.02 ± 1.85 µM | 82.2 ± 7.2 | – |
| 2.47 ± 14.2 | N#Cc1c(-c2ccc(O)c(O)c2)cc(C2CC2)nc1N [2A/55, 2-amino-6-cyclopropyl-4-(3,4-dihydroxyphenyl) nicotinonitrile] | – | – | – |
| – | N#Cc1c(-c2ccc(O)c(O)c2)cc(C2CCCCC2)nc1N [Compound 12, 2-amino-6-cyclohexyl-4-(3,4-dihydroxyphenyl)nicotinonitrile] | – | 49.4 | % Inhibition: 48.4 ± 5.80% |
| – | N#Cc1c(-c2ccc(O)c(O)c2)cc(-c2cccc(F)c2)nc1N [Compound 1, 2-amino-4-(3A-dihydroxyphenyl)-6-(3-fluorophenyl)nicotinonitrile] | – | – | % Inhibition: No inhibition |
| – | N#Cc1c(-c2ccc(O)c(I)c2)cc(-c2ccc(F)cc2)[nH]c1=N [Compound 53, 6(4-fluorophenyl)-4-(4-hydroxy-3-iodophenyl)-2-imino-1,2-dihydropyridine-3-carbonitrile] | – | 58.9 ± 19.9 | – |
| 64.2 ± 13.4 | N#CC1C(=N)N=C(c2cnccn2)C=C1c1ccc(O)c(O)c1 (centres unmarked) [Compound 9, 4-(3,4-dihydroxyphenyl)-2-imino-6-(pyrazin-2-yl)-2,3-dihydropyridine-3-carbonitrile] | – | – | – |
| – | N#Cc1c(-c2ccccc2O)cc(-c2ccc(F)cc2)nc1O [Compound 39, 6-(4-fluorophenyl)-2-hydroxy-4-(2-hydroxyphenyl)nicotinonitrile] | 1.75 µM | 100 | – |
| 33.9 ± 21.4 | Cc1ccc(-c2cc(-c3ccc(F)cc3)[nH]c(=N)c2C#N)o1 [Compound 44, 6-(4-fluorophenyl)-2-imino-4-(5-methylfuran-2-yl)-1,2-dihydropyridine-3-carbonitrile] | – | – | – |
| – | N#CC1C(=O)N=C(c2ccc(O)cc2)C=C1c1ccc(O)c(O)c1 (centres unmarked) [Compound 32, 4-(3,4-dihydroxyphenyl)-6-(4-hydroxyphenyl)-2-oxo-2,3-dihydropyridine-3-carbonitrile] | – | 94.1 | – |
| 98.8 ± 1.54 | N#Cc1c(-c2ccccc2O)cc(-c2ccc(F)cc2)nc1N [Compound 47, 2-amino-6-(4-fluorophenyl)-4-(2-hydroxyphenyl)nicotinonitrile] | 3.4 µM and 3.45 µM | – | – |
| 37.5 ± 19.9 | Cc1ccc(-c2cc(-c3ccc(F)cc3)[nH]c(=N)c2C#N)s1 [Compound 45, 6-(4-fluorophenyl)-2-imino-4-(5-methylthiophen-2-yl)-1,2-dihydropyridine-3-carbonitrile] | – | – | – |
| – | COc1cc(-c2cc(-c3ccc(F)cc3)[nH]c(=N)c2C#N)ccc1O [Compound 48, 6-(4-fluorophenyl)-4-(4-hydroxy-3-methoxyphenyl)-2-imino-1,2-dihydropyridine-3-carbonitrile] | 8.4 µM and 6.4 µM | 100 ± 0.49 | – |
| 70.2 | Cc1cc(-c2ccc(O)c(O)c2)c(C#N)c(N)n1 [Compound 13, 2-amino-4-(3,4-dihydroxyphenyl)-6-methylnicotinonitrile] | – | – | – |
| 71.2 ± 5.6 | N#Cc1c(-c2ccc(O)c(O)c2)cc(-c2ccc(F)cc2)[nH]c1=O [Compound 19, 4-(3,4-dihydroxyphenyl)-6-(4-fluorophenyl)-2-oxo-1,2-dihydropyridine-3-carbonitrile] | – | – | – |
| – | N#Cc1c(-c2ccc(O)cc2)cc(-c2ccc(F)cc2)[nH]c1=O [Compound 41, 6(4-fluorophenyl)-4-(4-hydroxyphenyl)-2-oxo-1,2-dihydropyridine-3-carbonitrile] | – | 60.7 ± 10.3 | – |
| 54.6 ± 11.6 | N#Cc1c(-c2ccc(O)c(C(=O)O)c2)cc(-c2ccc(F)cc2)[nH]c1=N [Compound 51, 5-(3-cyano-6-(4-fluorophenyl)-2-imino-1,2-dihydropyridin-4-yl)-2-hydroxybenzoic acid] | – | – | – |
| 88.2 ± 13.9 | Cc1ccc(N2CCCCC2)cc1 [Compound 18] | – | – | – |
| – | N#Cc1c(-c2ccc(O)c(C(=O)O)c2)cc(-c2ccc(N)cc2)nc1N [Compound 33, 5-(2-amino-6-(4-aminophenyl)-3-cyanopyridin-4-yl)-2-hydroxybenzoic acid] | – | 6.63 | – |
| 94.3 | N#Cc1c(-c2ccc(O)c(O)c2)cc(-c2cccnc2)[nH]c1=N [Compound 7, 4-(3,4-dihydroxyphenyl)-6-imino-1,6-dihydro-[2,3′-bipyridine]-5-carbonitrile] | 2.02 ± 0.97 µM | – | % Inhibition: 84.3 ± 1.11% |
| – | N#Cc1c(-c2ccc(O)c(O)c2)cc(-c2ccco2)nc1N [Compound 8, 2-amino-4-(3,4-dihydroxyphenyl)-6-(furan-2-yl)nicotinonitrile] | – | – | % Inhibition: No inhibition |
| 68.7 ± 9.84 | N#CC1C(=O)N=C(c2ccc(-c3ccccc3)cc2)C=C1c1ccc(O)c(O)c1 (centres unmarked) [Compound 31, 6-([1,1′-biphenyl]-4-yl)-4-(3,4-dihydroxyphenyl)-2-oxo-2,3-dihydropyridine-3-carbonitrile] | – | – | – |
| 97.7 | Cc1c(-c2ccc(F)cc2)[nH]c(=N)c(C#N)c1-c1ccc(O)c(O)c1 [Compound 20, 4-(3,4-dihydroxyphenyl)-6-(4-fluorophenyl)-2-imino-5-methyl-1,2-dihydropyridine-3-carbonitrile] | 2.69 ± 0.57 µM | – | potency compared with Nico-52 (in words) (dose response, IL-4 inhibition): less potency than Nico-52 |
| – | N#Cc1c(-c2ccc(O)c(O)c2)cc(-c2ccc3ccccc3c2)[nH]c1=N [Compound 11, 4-(3,4-dihydroxyphenyl)-2-imino-6-(naphthalen-2-yl)-1,2-dihydropyridine-3-carbonitrile] | – | 54.7 ± 8.42 | – |
| – | Cc1ccc(-c2cc(-c3ccc(O)c(O)c3)c(C#N)c(=N)[nH]2)cc1 [Compound 5, 4-(3,4-dihydroxyphenyl)-2-imino-6-(p-tolyl)-1,2-dihydropyridine-3-carbonitrile] | 1.29 ± 0.47 µM | > 80 | % Inhibition: 62.7 ± 4.30% and 82.7 ± 4.30% |
